Assay results as given in ChEMBL document CHEMBL4732083, “Synthesis and anti-inflammatory activity of saponin derivatives of δ-oleanolic acid” (Eur J Med Chem, 2021).
Calls of active or inactive are those of the source. The rule behind the calls is not given here.

Key:
[1] = target: T1, AMP-activated protein kinase, AMPK (Homo sapiens) (UniProt P54646+O43741+P54619+Q9UGJ0+Q9Y478+Q13131+Q9UGI9); experiment: Activation of AMPK in human Huh-7 cells assessed as increase in AMPK phosphorylation at Thr172 residue at 10 uM measured after 12 hrs by Western blot analysis; type: cell-based; details: filed as activator
[2] = Metabolic stability in human liver microsomes assessed as half life in presence of NADPH by LC-MS analysis; type: ADME, Microsome
[3] = Metabolic stability in mouse liver microsomes assessed as half life in presence of NADPH by LC-MS analysis; type: ADME, Microsome
[4] = Metabolic stability in human liver microsomes assessed as intrinsic clearance in presence of NADPH by LC-MS analysis; type: ADME, Microsome; details: read-out: CLH
[5] = Metabolic stability in mouse liver microsomes assessed as intrinsic clearance in presence of NADPH by LC-MS analysis; type: ADME, Microsome; details: read-out: CLH
[6] = Tmax in BALB/c mouse at 10 mg/kg, po by LC/MS-MS analysis; type: ADME, organism-based; details: in vivo
[7] = Tmax in BALB/c mouse at 2 mg/kg, iv by LC/MS-MS analysis; type: ADME, organism-based; details: in vivo
[8] = Cmax in BALB/c mouse at 10 mg/kg, po by LC/MS-MS analysis; type: ADME, organism-based; set-up: route oral, dose 10 mg/kg; details: in vivo
[9] = Cmax in BALB/c mouse at 2 mg/kg, iv by LC/MS-MS analysis; type: ADME, organism-based; set-up: route intravenous, dose 2 mg/kg; details: in vivo
[10] = AUC (0 to t) in BALB/c mouse at 10 mg/kg, po by LC/MS-MS analysis; type: ADME, organism-based; set-up: dose 10 mg/kg; details: in vivo
[11] = AUC (0 to t) in BALB/c mouse at 2 mg/kg, iv by LC/MS-MS analysis; type: ADME, organism-based; set-up: dose 2 mg/kg; details: in vivo
[12] = AUC (0 to infinity) in BALB/c mouse at 10 mg/kg, po by LC/MS-MS analysis; type: ADME, organism-based; set-up: route oral, time infinity, dose 10 mg/kg; details: in vivo
[13] = AUC (0 to infinity) in BALB/c mouse at 2 mg/kg, iv by LC/MS-MS analysis; type: ADME, organism-based; set-up: route intravenous, time infinity, dose 2 mg/kg; details: in vivo
[14] = Half life in BALB/c mouse at 10 mg/kg, po by LC/MS-MS analysis; type: ADME, organism-based; details: in vivo
[15] = Half life in BALB/c mouse at 2 mg/kg, iv by LC/MS-MS analysis; type: ADME, organism-based; details: in vivo
[16] = Bioavailability in BALB/c mouse at 10 mg/kg, po by LC/MS-MS analysis; type: ADME, organism-based; details: in vivo
[17] = target: T1, AMP-activated protein kinase, AMPK (Homo sapiens); experiment: Activation of AMPK in human Huh-7 cells assessed as increase in AMPK phosphorylation at Thr172 residue at 10 uM measured by Western blot analysis; type: cell-based; details: filed as activator, time hrs <=12, TDE = time-dependent effect
[18] = target: T1, AMP-activated protein kinase, AMPK (Homo sapiens); experiment: Activation of AMPK in human HepG2 cells assessed as increase in AMPK phosphorylation at Thr172 residue at 10 uM measured by Western blot analysis; type: cell-based; details: filed as activator, time hrs <=12, TDE = time-dependent effect
[19] = target: T1, AMP-activated protein kinase, AMPK (Homo sapiens); experiment: Activation of AMPK in human Huh-7 cells assessed as increase in AMPK phosphorylation at Thr172 measured upto 12 hrs by Western blot analysis; type: cell-based; details: filed as activator, dose microM <=20, time hrs <=12
[20] = target: T1, AMP-activated protein kinase, AMPK (Homo sapiens); experiment: Activation of AMPK in human HepG2 cells assessed as increase in AMPK phosphorylation measured upto 12 hrs by Western blot analysis; type: cell-based; details: filed as activator, dose microM <=20, time hrs <=12
[21] = target: T1, AMP-activated protein kinase, AMPK (Homo sapiens); experiment: Activation of AMPK in human Huh-7 cells assessed as increase in acetyl-CoA carboxylase phosphorylation at Ser79 residue at 10 uM measured by Western blot analysis; type: cell-based; details: filed as activator, time hrs <=12, TDE = time-dependent effect
[22] = target: T1, AMP-activated protein kinase, AMPK (Homo sapiens); experiment: Activation of AMPK in human HepG2 cells assessed as increase in acetyl-CoA carboxylase phosphorylation at Ser79 residue at 10 uM measured by Western blot analysis; type: cell-based; details: filed as activator, time hrs <=12, TDE = time-dependent effect
[23] = target: T1, AMP-activated protein kinase, AMPK (Homo sapiens); experiment: Activation of AMPK in human Huh-7 cells assessed as increase in acetyl-CoA carboxylase phosphorylation at Ser79 measured upto 12 hrs by Western blot analysis; type: cell-based; details: filed as activator, dose microM <=20, time hrs <=12
[24] = target: T1, AMP-activated protein kinase, AMPK (Homo sapiens); experiment: Activation of AMPK in human HepG2 cells assessed as increase in acetyl-CoA carboxylase phosphorylation at Ser79 measured upto 12 hrs by Western blot analysis; type: cell-based; details: filed as activator, dose microM <=20, time hrs <=12
THP-1 = experiment: Cytotoxicity against human THP-1 cells assessed as reduction in cell viability at 1 to 10 uM; type: cell-based; details: thp-1, 10 µM

Compound: C=C(C)[C@@H]1CC[C@]2(C(=O)O)CC[C@]3(C)[C@H](CC[C@@H]4[C@@]5(C)CC[C@H](O)C(C)(C)[C@@H]5CC[C@]43C)[C@@H]12
- Activity [1]: Active

Compound: CC1(C)CC[C@]2(C(=O)O)CC[C@]3(C)C(=CC[C@@H]4[C@@]5(C)C[C@@H](O)[C@H](O)C(C)(C)[C@@H]5CC[C@]43C)[C@@H]2C1
- Activity [1]: Active

Compound: CC1(C)CC[C@]2(C(=O)O)CC[C@]3(C)C(=CC[C@@H]4[C@@]5(C)CC[C@H](O)C(C)(C)[C@@H]5CC[C@]43C)[C@@H]2C1
- Activity [1]: Active

Compound: CC1(C)CC[C@]2(C(=O)O[C@@H]3O[C@H](CO)[C@@H](O)[C@H](O)[C@H]3O)CC[C@]3(C)C(=CC[C@@H]4[C@@]5(C)CC[C@H](O[C@@H]6O[C@H](C(=O)O)[C@@H](O)[C@H](O)[C@H]6O[C@@H]6O[C@H](CO)[C@@H](O)[C@H](O)[C@H]6O)C(C)(C)[C@@H]5CC[C@]43C)[C@@H]2C1
- Activity [1]: Active

Compound: CC1(C)[C@@H](O)CC[C@]2(C)[C@H]3C(=O)C=C4[C@@H]5C[C@@](C)(C(=O)O)CC[C@]5(C)CC[C@@]4(C)[C@]3(C)CC[C@@H]12
- Activity [1]: Active

Compound: CC1(C)CC[C@]2(C(=O)O)CC[C@]3(C)C(=C2C1)CC[C@@H]1[C@@]2(C)CC[C@H](O[C@@H]4OC[C@H](O)[C@H](O)[C@H]4O[C@@H]4OC[C@@H](O)[C@H](O)[C@H]4O)C(C)(C)[C@@H]2CC[C@]13C
- half-life [2]: > 2 h
- half-life [3]: > 2 h
- CLint scaled [4]: 3.25 mL/min/kg
- CLint scaled [5]: 2.34 mL/min/kg
- Tmax [6]: 0.75 h
- Tmax [7]: 4.8 min
- Cmax [8]: 54.2 ng/mL
- Cmax [9]: 8820 ng/mL
- AUC(0-t) [10]: 145 ng·h/mL
- AUC(0-t) [11]: 2570 ng·h/mL
- AUC(0-inf) [12]: 151 ng·h/mL
- AUC(0-inf) [13]: 2590 ng·h/mL
- half-life [14]: 1.26 h
- half-life [15]: 2.25 h
- bioavailability [16]: 1.13%

Compound: CC1(C)CC[C@]2(C(=O)O)CC[C@]3(C)C(=CC[C@@H]4[C@@]5(C)CC[C@H](O)[C@@](C)(CO)[C@@H]5CC[C@]43C)[C@@H]2C1
- Activity [1]: Active

Compound: C[C@H]1[C@H](C)CC[C@]2(C(=O)O[C@@H]3O[C@H](CO[C@@H]4O[C@H](CO)[C@@H](O[C@@H]5O[C@@H](C)[C@H](O)[C@@H](O)[C@H]5O)[C@H](O)[C@H]4O)[C@@H](O)[C@H](O)[C@H]3O)CC[C@]3(C)C(=CC[C@@H]4[C@@]5(C)C[C@@H](O)[C@H](O)[C@@](C)(CO)[C@@H]5CC[C@]43C)[C@H]12
- Activity [1]: Active

Compound: CC1(C)CC[C@]2(C(=O)O)CC[C@]3(C)C(=C2C1)CC[C@@H]1[C@@]2(C)CC[C@H](O)C(C)(C)[C@@H]2CC[C@]13C
- Activity [1]: Active
- Activity [17]: Tde
- Activity [18]: Tde
- Activity [19]: Dose-dependent effect
- Activity [20]: Dose-dependent effect
- Activity [21]: Tde
- Activity [22]: Tde
- Activity [23]: Dose-dependent effect
- Activity [24]: Dose-dependent effect
- Activity (THP-1): Non-Toxic

Compound: C[C@H]1[C@H](C)CC[C@]2(C(=O)O)CC[C@]3(C)C(=CC[C@@H]4[C@@]5(C)CC[C@H](O)C(C)(C)[C@@H]5CC[C@]43C)[C@H]12
- Activity [1]: Active

Compound: C[C@@H]1CC[C@]2(C(=O)O)CC[C@]3(C)C(=CC[C@@H]4[C@@]5(C)CC[C@H](O[C@@H]6OC[C@H](O)[C@H](O)[C@H]6O)C(C)(C)[C@@H]5CC[C@]43C)[C@@H]2[C@]1(C)O
- Activity [1]: Active

Compound: C[C@@H]1CC[C@]2(C(=O)O[C@@H]3O[C@H](CO)[C@@H](O)[C@H](O)[C@H]3O)CC[C@]3(C)C(=CC[C@@H]4[C@@]5(C)CC[C@H](O[C@@H]6OC[C@H](O)[C@H](O)[C@H]6O)C(C)(C)[C@@H]5CC[C@]43C)[C@@H]2[C@]1(C)O
- Activity [1]: Active
